# Tested on: PGM1-defective patient fibroblasts
# Assay: Nucleotide sugar analysis (UPLC-PDA), patient fibroblasts
# Format: cell-based, human
# Experimental: Levels of nucleotides and sugar-nucleotides were determined. Fibroblast cell pellets (5×10^6 cells per sample) were lysed and extracted in 0.37 ml ice-cold 0.5 M perchloric acid with sonication on ice. Samples were neutralized with 86 μl ice-cold neutralization solution (2.5 M KOH in 1.5 M K2HPO4) after 5 minute sonication. To remove precipitated potassium perchlorate neutralized samples were centrifuged at 4° C. and 16,400×g for 10 minutes and filtered with 0.2 μm filters. Nucleotides and sugar-nucleotides were immediately analyzed and separated via ion-pair reverse phased chromatography using an Acquity HSS T3 column (150 mm×2.1 mm, 1.7 μm, Waters) connected to an Acquity H-class UPLC system. The column temperature was set to 40° C. and the column was equilibrated with solvent A (50 mM potassium phosphate buffer, 8 mM tetrabutylammonium hydrogensulfate, pH 6.5) at a flow rate of 0.45 ml min^−1. Autosampler temperature was maintained at 6° C. […] Nucleotides were detected by Acquity PDA detector (Waters, 260 nm) and quantified using ultrapure standards (Sigma). Data acquisition and processing was performed with the Empower3 software suite (Waters).
# Nucleotide sugars were measured with serum starvation during 18 hours of culturing and without of serum starvation and applying normal media.
# [1] = Patient 8, 1 d + 0.75 mM Galactose
# [2] = Patient 8, 4 d + 0.75 mM Galactose
# [3] = listed as 'i e' (patient cell-line 2013Y), 1 d 2 mM Galactose
# [4] = listed as 'i e' (patient cell-line 2013Y), 1 d + 0.75 mM Galactose
# [5] = listed as 'i e' (patient cell-line 2013Y), 4 d 2 mM Galactose
# [6] = listed as 'i e' (patient cell-line 2013Y), 4 d + 0.75 mM Galactose
# [7] = patient 1, 1 d + 0.75 mM Galactose
# [8] = patient 1, 4 d + 0.75 mM Galactose
# [9] = patient 2, 1 d + 0.75 mM Galactose
# [10] = patient 2, 4 d + 0.75 mM Galactose
structure (smiles),measurement,setting,value
"O=C[C@H](O)[C@@H](O)[C@@H](O)[C@H](O)CO [D-gal, D-galactose]",ADP,"Patient 8, 1 d 2 mM Galactose",510.69 pmol/mio cells
same,AMP,"Patient 8, 1 d 2 mM Galactose",15.28 pmol/mio cells
same,ATP,"Patient 8, 1 d 2 mM Galactose",2089.09 pmol/mio cells
same,CTP,"Patient 8, 1 d 2 mM Galactose",274.92 pmol/mio cells
same,GDP,"Patient 8, 1 d 2 mM Galactose",213.67 pmol/mio cells
same,GDP-Man,"Patient 8, 1 d 2 mM Galactose",29.66 pmol/mio cells
same,GTP,"Patient 8, 1 d 2 mM Galactose",434.86 pmol/mio cells
same,UDP,"Patient 8, 1 d 2 mM Galactose",153.67 pmol/mio cells
same,UDP-Gal,"Patient 8, 1 d 2 mM Galactose",398.68 pmol/mio cells
same,UDP-Glc,"Patient 8, 1 d 2 mM Galactose",613.75 pmol/mio cells
same,UDP-GlcNAc,"Patient 8, 1 d 2 mM Galactose",31.04 pmol/mio cells
same,UTP,"Patient 8, 1 d 2 mM Galactose",1183.32 pmol/mio cells
same,cAMP,"Patient 8, 1 d 2 mM Galactose",75.29 pmol/mio cells
same,ADP,[1],429.27 pmol/mio cells
same,AMP,[1],7.31 pmol/mio cells
same,ATP,[1],1855.71 pmol/mio cells
same,CTP,[1],222.68 pmol/mio cells
same,GDP,[1],188.04 pmol/mio cells
same,GDP-Man,[1],31.71 pmol/mio cells
same,GTP,[1],387.39 pmol/mio cells
same,UDP,[1],120.53 pmol/mio cells
same,UDP-Gal,[1],273.66 pmol/mio cells
same,UDP-Glc,[1],445.76 pmol/mio cells
same,UDP-GlcNAc,[1],40.27 pmol/mio cells
same,UTP,[1],1037.93 pmol/mio cells
same,cAMP,[1],72.84 pmol/mio cells
same,ADP,"Patient 8, 4 d 2 mM Galactose",695.56 pmol/mio cells
same,AMP,"Patient 8, 4 d 2 mM Galactose",22.78 pmol/mio cells
same,ATP,"Patient 8, 4 d 2 mM Galactose",3192.45 pmol/mio cells
same,CTP,"Patient 8, 4 d 2 mM Galactose",282.74 pmol/mio cells
same,GDP,"Patient 8, 4 d 2 mM Galactose",260.45 pmol/mio cells
same,GDP-Man,"Patient 8, 4 d 2 mM Galactose",95.43 pmol/mio cells
same,GTP,"Patient 8, 4 d 2 mM Galactose",659.21 pmol/mio cells
same,UDP,"Patient 8, 4 d 2 mM Galactose",169.63 pmol/mio cells
same,UDP-Gal,"Patient 8, 4 d 2 mM Galactose",315.21 pmol/mio cells
same,UDP-Glc,"Patient 8, 4 d 2 mM Galactose",493.54 pmol/mio cells
same,UDP-GlcNAc,"Patient 8, 4 d 2 mM Galactose",56.13 pmol/mio cells
same,UTP,"Patient 8, 4 d 2 mM Galactose",1293.27 pmol/mio cells
same,cAMP,"Patient 8, 4 d 2 mM Galactose",88.40 pmol/mio cells
same,ADP,[2],655.53 pmol/mio cells
same,AMP,[2],18.87 pmol/mio cells
same,ATP,[2],3363.84 pmol/mio cells
same,CTP,[2],274.92 pmol/mio cells
same,GDP,[2],277.54 pmol/mio cells
same,GDP-Man,[2],101.37 pmol/mio cells
same,GTP,[2],682.40 pmol/mio cells
same,UDP,[2],174.89 pmol/mio cells
same,UDP-Gal,[2],283.69 pmol/mio cells
same,UDP-Glc,[2],442.43 pmol/mio cells
same,UDP-GlcNAc,[2],6.33 pmol/mio cells
same,UTP,[2],1364.91 pmol/mio cells
same,cAMP,[2],74.47 pmol/mio cells
same,UDP-Glc and UDP-Gal levels,"all patient cell lines, 4 days of D-gal supplementation",remained significantly increased
same,ADP,[3],318.92 pmol/mio cells
same,AMP,[3],2.63 pmol/mio cells
same,ATP,[3],2918.66 pmol/mio cells
same,CTP,[3],295.58 pmol/mio cells
same,GDP,[3],186.06 pmol/mio cells
same,GDP-Man,[3],56.30 pmol/mio cells
same,GTP,[3],566.56 pmol/mio cells
same,UDP,[3],42.70 pmol/mio cells
same,UDP-Gal,[3],503.56 pmol/mio cells
same,UDP-Glc,[3],637.55 pmol/mio cells
same,UDP-GlcNAc,[3],211.57 pmol/mio cells
same,UTP,[3],981.09 pmol/mio cells
same,cAMP,[3],70.73 pmol/mio cells
same,ADP,[4],407.13 pmol/mio cells
same,AMP,[4],8.23 pmol/mio cells
same,ATP,[4],3422.01 pmol/mio cells
same,CTP,[4],339.16 pmol/mio cells
same,GDP,[4],187.52 pmol/mio cells
same,GDP-Man,[4],107.59 pmol/mio cells
same,GTP,[4],681.74 pmol/mio cells
same,UDP,[4],115.84 pmol/mio cells
same,UDP-Gal,[4],431.17 pmol/mio cells
same,UDP-Glc,[4],703.36 pmol/mio cells
same,UDP-GlcNAc,[4],21.89 pmol/mio cells
same,UTP,[4],1494.83 pmol/mio cells
same,cAMP,[4],91.16 pmol/mio cells
same,ADP,[5],382.44 pmol/mio cells
same,AMP,[5],16.17 pmol/mio cells
same,ATP,[5],3460.76 pmol/mio cells
same,CTP,[5],241.06 pmol/mio cells
same,GDP,[5],242.68 pmol/mio cells
same,GDP-Man,[5],147.29 pmol/mio cells
same,GTP,[5],681.71 pmol/mio cells
same,UDP,[5],43.26 pmol/mio cells
same,UDP-Gal,[5],394.31 pmol/mio cells
same,UDP-Glc,[5],616.89 pmol/mio cells
same,UTP,[5],1316.26 pmol/mio cells
same,cAMP,[5],98.61 pmol/mio cells
same,ADP,[6],349.53 pmol/mio cells
same,AMP,[6],3.85 pmol/mio cells
same,ATP,[6],3484.52 pmol/mio cells
same,CTP,[6],280.34 pmol/mio cells
same,GDP,[6],225.14 pmol/mio cells
same,GDP-Man,[6],151.18 pmol/mio cells
same,GTP,[6],686.35 pmol/mio cells
same,UDP,[6],39.53 pmol/mio cells
same,UDP-Gal,[6],290.54 pmol/mio cells
same,UDP-Glc,[6],487.94 pmol/mio cells
same,UDP-GlcNAc,[6],354.84 pmol/mio cells
same,UTP,[6],944.20 pmol/mio cells
same,cAMP,[6],68.63 pmol/mio cells
same,ADP,"patient 1, 1 d 2 mM Galactose",580.50 pmol/mio cells
same,ATP,"patient 1, 1 d 2 mM Galactose",2719.61 pmol/mio cells
same,CTP,"patient 1, 1 d 2 mM Galactose",342.25 pmol/mio cells
same,GDP,"patient 1, 1 d 2 mM Galactose",293.65 pmol/mio cells
same,GDP-Man,"patient 1, 1 d 2 mM Galactose",107.17 pmol/mio cells
same,GTP,"patient 1, 1 d 2 mM Galactose",542.24 pmol/mio cells
same,UDP,"patient 1, 1 d 2 mM Galactose",129.40 pmol/mio cells
same,UDP-Gal,"patient 1, 1 d 2 mM Galactose",453.09 pmol/mio cells
same,UDP-Glc,"patient 1, 1 d 2 mM Galactose",650.22 pmol/mio cells
same,UDP-GlcNAc,"patient 1, 1 d 2 mM Galactose",102.26 pmol/mio cells
same,UTP,"patient 1, 1 d 2 mM Galactose",1449.38 pmol/mio cells
same,cAMP,"patient 1, 1 d 2 mM Galactose",74.49 pmol/mio cells
same,ADP,[7],584.35 pmol/mio cells
same,AMP,[7],23.07 pmol/mio cells
same,ATP,[7],2943.38 pmol/mio cells
same,CTP,[7],366.00 pmol/mio cells
same,GDP,[7],246.90 pmol/mio cells
same,GDP-Man,[7],155.03 pmol/mio cells
same,GTP,[7],588.22 pmol/mio cells
same,UDP,[7],134.67 pmol/mio cells
same,UDP-Gal,[7],386.15 pmol/mio cells
same,UDP-Glc,[7],604.90 pmol/mio cells
same,UDP-GlcNAc,[7],121.57 pmol/mio cells
same,UTP,[7],1510.19 pmol/mio cells
same,cAMP,[7],71.81 pmol/mio cells
same,ADP,"patient 1, 4 d 2 mM Galactose",772.84 pmol/mio cells
same,AMP,"patient 1, 4 d 2 mM Galactose",22.72 pmol/mio cells
same,ATP,"patient 1, 4 d 2 mM Galactose",3861.23 pmol/mio cells
same,CTP,"patient 1, 4 d 2 mM Galactose",370.91 pmol/mio cells
same,GDP,"patient 1, 4 d 2 mM Galactose",387.40 pmol/mio cells
same,GDP-Man,"patient 1, 4 d 2 mM Galactose",170.10 pmol/mio cells
same,GTP,"patient 1, 4 d 2 mM Galactose",763.70 pmol/mio cells
same,UDP,"patient 1, 4 d 2 mM Galactose",215.93 pmol/mio cells
same,UDP-Gal,"patient 1, 4 d 2 mM Galactose",398.07 pmol/mio cells
same,UDP-Glc,"patient 1, 4 d 2 mM Galactose",620.64 pmol/mio cells
same,UDP-GlcNAc,"patient 1, 4 d 2 mM Galactose",12.26 pmol/mio cells
same,UTP,"patient 1, 4 d 2 mM Galactose",1569.45 pmol/mio cells
same,cAMP,"patient 1, 4 d 2 mM Galactose",71.92 pmol/mio cells
same,ADP,[8],789.98 pmol/mio cells
same,AMP,[8],34.87 pmol/mio cells
same,ATP,[8],3796.06 pmol/mio cells
same,CTP,[8],342.60 pmol/mio cells
same,GDP,[8],422.05 pmol/mio cells
same,GDP-Man,[8],217.57 pmol/mio cells
same,GTP,[8],749.54 pmol/mio cells
same,UDP,[8],208.17 pmol/mio cells
same,UDP-Gal,[8],331.94 pmol/mio cells
same,UDP-Glc,[8],475.08 pmol/mio cells
same,UDP-GlcNAc,[8],38.85 pmol/mio cells
same,UTP,[8],1526.34 pmol/mio cells
same,cAMP,[8],73.68 pmol/mio cells
same,ADP,"patient 2, 1 d 2 mM Galactose",610.98 pmol/mio cells
same,AMP,"patient 2, 1 d 2 mM Galactose",18.34 pmol/mio cells
same,ATP,"patient 2, 1 d 2 mM Galactose",5088.22 pmol/mio cells
same,CTP,"patient 2, 1 d 2 mM Galactose",419.20 pmol/mio cells
same,GDP,"patient 2, 1 d 2 mM Galactose",301.50 pmol/mio cells
same,GDP-Man,"patient 2, 1 d 2 mM Galactose",194.09 pmol/mio cells
same,GTP,"patient 2, 1 d 2 mM Galactose",982.69 pmol/mio cells
same,UDP,"patient 2, 1 d 2 mM Galactose",166.53 pmol/mio cells
same,UDP-Gal,"patient 2, 1 d 2 mM Galactose",527.44 pmol/mio cells
same,UDP-Glc,"patient 2, 1 d 2 mM Galactose",871.97 pmol/mio cells
same,UDP-GlcNAc,"patient 2, 1 d 2 mM Galactose",5.21 pmol/mio cells
same,UTP,"patient 2, 1 d 2 mM Galactose",2093.30 pmol/mio cells
same,cAMP,"patient 2, 1 d 2 mM Galactose",81.52 pmol/mio cells
same,ADP,[9],754.10 pmol/mio cells
same,AMP,[9],16.43 pmol/mio cells
same,ATP,[9],5766.25 pmol/mio cells
same,CTP,[9],448.80 pmol/mio cells
same,GDP,[9],356.25 pmol/mio cells
same,GDP-Man,[9],236.64 pmol/mio cells
same,GTP,[9],1110.15 pmol/mio cells
same,UDP,[9],219.47 pmol/mio cells
same,UDP-Gal,[9],478.66 pmol/mio cells
same,UDP-Glc,[9],821.98 pmol/mio cells
same,UDP-GlcNAc,[9],36.15 pmol/mio cells
same,UTP,[9],2422.95 pmol/mio cells
same,cAMP,[9],77.51 pmol/mio cells
same,ADP,"patient 2, 4 d 2 mM Galactose",849.99 pmol/mio cells
same,AMP,"patient 2, 4 d 2 mM Galactose",20.40 pmol/mio cells
same,ATP,"patient 2, 4 d 2 mM Galactose",6520.85 pmol/mio cells
same,CTP,"patient 2, 4 d 2 mM Galactose",430.21 pmol/mio cells
same,GDP,"patient 2, 4 d 2 mM Galactose",356.50 pmol/mio cells
same,GDP-Man,"patient 2, 4 d 2 mM Galactose",340.74 pmol/mio cells
same,GTP,"patient 2, 4 d 2 mM Galactose",1241.95 pmol/mio cells
same,UDP,"patient 2, 4 d 2 mM Galactose",249.58 pmol/mio cells
same,UDP-Gal,"patient 2, 4 d 2 mM Galactose",455.92 pmol/mio cells
same,UDP-Glc,"patient 2, 4 d 2 mM Galactose",665.41 pmol/mio cells
same,UDP-GlcNAc,"patient 2, 4 d 2 mM Galactose",2.63 pmol/mio cells
same,UTP,"patient 2, 4 d 2 mM Galactose",2810.26 pmol/mio cells
same,cAMP,"patient 2, 4 d 2 mM Galactose",70.40 pmol/mio cells
same,ADP,[10],834.56 pmol/mio cells
same,AMP,[10],21.45 pmol/mio cells
same,ATP,[10],6841.61 pmol/mio cells
same,CTP,[10],425.54 pmol/mio cells
same,GDP,[10],394.32 pmol/mio cells
same,GDP-Man,[10],203.23 pmol/mio cells
same,GTP,[10],1263.21 pmol/mio cells
same,UDP,[10],262.74 pmol/mio cells
same,UDP-Gal,[10],390.10 pmol/mio cells
same,UDP-Glc,[10],611.51 pmol/mio cells
same,UDP-GlcNAc,[10],4.53 pmol/mio cells
same,UTP,[10],2976.41 pmol/mio cells
same,cAMP,[10],72.52 pmol/mio cells
same,"Nucleotide sugar ratio UDP-Glc/UDP-Gal, mean",patient cell lines on D-gal (1.63 without),1.56
